According to patent publication US5280111A, “Sulfated tocopheryl oligosaccharides and antiviral agents including the same as active ingredients” (Dainippon Ink and Chemicals, Inc., priority 1991, dated 1994):
In brackets after ≈: the same amount, converted by molar mass. Read-outs that look alike come from different tables or passages of the source.

Assays:
Format in all cases: cell-based
[1] = system: HIV-1; experiment: Anti-HIV assay: inhibition of virus induced cytopathogenicity in MT-4 cells (MTT method); settings: for EC50: HIV-1-infected MT-4 cells, MOI 0.01, 5 days at 37° C., MTT method; for SI: ratio of CC50/EC50, 7200 min
Procedure: (§1) Activity of the compound against HIV-1 replication was based on the inhibition of virus induced cytopathogenicity in MT-4 cells. MT-4 cells were suspended in culture medium at 2.5×10^4 cells/ml and infected with HIV-1 at a multiplicity of infection (MOI) of 0.01. 100 μl of cell suspension was brought into microtiter tray wells containing various concentrations of the test compounds.
(§2) After 5 days of incubation at 37° C. using a CO2 incubator, the number of viable cells was determined by the MTT method.
(§3) The inhibitory effect on host cell viability (cytotoxicity) was also determined by the MTT method. All activities of the compounds are expressed as 50% inhibitory concentration, i.e., the concentration required to reduce the number of HIV-1-infected MT-4 cells or mock-infected MT-4 cells by 50%. These are expressed using EC50 and CC50. SI is expressed by the ratio of CC50 /EC50. (Reference document: Pauwels, et al., J. Virol Methods, 20 (1988) 309~321).
(§4) According to this method, the anti-HIV assay was carried out using the compounds obtained in Examples 9 to 14. In addition, AZT (3'-azido-3'-deoxythymidine) known as an anti-AIDS agent was employed as a comparative example.

[2] = system: MT-4 cells; experiment: Cytotoxicity: inhibitory effect on host cell viability, mock-infected MT-4 cells (MTT method); settings: human, mt-4 cells, 120 h
Procedure: as §1, §2, §3, §4

[3] = as above; settings: human; mock-infected MT-4 cells; 50% reduction of viable cells; MTT method; 5 days at 37° C.
Procedure: as §1, §2, §3, §4

Compound “sulfated ester sodium salt of dl-α-tocopheryl β-D-glucosyl(1→3)-{β-D-glucosyl(1→3)}3 -β-D-glucoside (1) [Example 10]” has an EC50 [1] of 0.52 µg/mL, an SI [1] of over 920 and a CC50 [2] of over 480 µg/mL.

For Cc1cn([C@H]2C[C@H](N=[N+]=[N-])[C@@H](CO)O2)c(=O)[nH]c1=O [AZT, 3'-azido-3'-deoxythymidine, reference compound], the EC50 ([1]; Human immunodeficiency virus 1, MT4, 120 h, read-out: EC50) was 0.0013 µg/mL (≈ 0.00486 µM), the SI [1] was 2160 and the CC50 at 120 h [3] was 2.88 µg/mL (≈ 10.8 µM).

Work on “sulfated ester sodium salt of dl-α-tocopheryl β-D-glucosyl(1→3)-{β-D-glucosyl(1→3)}7 -β-D-glucoside [Example 12]” yielded an EC50 [1] of 0.44 µg/mL, an SI [1] of over 1000 and a CC50 [2] of over 480 µg/mL.

Compound “sulfated dl-α-tocopheryl β-D-galactosyl(1→4)-β-D-lactoside [Example 9]” has an EC50 [1] of 1.03 µg/mL, an SI [1] of 587 and a CC50 [2] of 606 µg/mL.

Compound Cc1c(C)c2c(c(C)c1O[C@@H]1O[C@H](COS(=O)(=O)O)[C@@H](O[C@@H]3O[C@H](COS(=O)(=O)O)[C@H](O[C@@H]4O[C@H](COS(=O)(=O)O)[C@H](O[C@@H]5O[C@H](COS(=O)(=O)O)[C@H](OS(=O)(=O)O)[C@H](OS(=O)(=O)O)[C@H]5OS(=O)(=O)O)[C@H](OS(=O)(=O)O)[C@H]4OS(=O)(=O)O)[C@H](OS(=O)(=O)O)[C@H]3OS(=O)(=O)O)[C@H](OS(=O)(=O)O)[C@H]1OS(=O)(=O)O)CCC(C)(CCCC(C)CCCC(C)CCCC(C)C)O2 (mixture of isomers) [Example 13, sulfated dl-α-tocopheryl β-D-galactosyl(1→4)-β-D-galactosyl(1→4)-β-D-lactoside] has a CC50 [2] of 621 µg/mL.

“sulfated ester sodium salt of dl-α-tocopheryl β-D-glucosyl(1→3)-{β-D-glucosyl(1→3)}3 -β-D-glucoside (2) [Example 11]” gave an EC50 [1] of 0.45 µg/mL, an SI [1] of over 1000 and a CC50 [2] of over 480 µg/mL.

In the case of “sulfated dl-α-tocopheryl β-D-galactosyl(1→4)-β-D-galactosyl(1→4)-β-D-lactoside [Example 14]”, the EC50 [1] is reported as 0.57 µg/mL, the SI [1] is reported as 1151 and the CC50 [2] is reported as 656 µg/mL.
